Measurements from patent publication US12668584B2, “Heterocyclic compounds as kinase inhibitors for therapeutic uses” (National Health Research Institutes, priority 2019, dated 2026).

Columns and labels:
[1] = target: T1, CSF1R kinase (recombinant N-terminal GST-CSF1R, residues L534-C972) (Homo sapiens, UniProt P07333); experiment: CSF1R Kinase-Glo assay; format: biochemical; conditions: 40 μM ATP, 30° C. 180 min, read-out: Enzymatic Assay CSF1R enzyme IC50
T1 construct: Recombinant N-terminal GST-CSF1R (CSF1R residues L534-C972) containing the CSFIR kinase domain; made in house; host or cells: Sf9 insect cells
T1 sequence (P07333 534-972): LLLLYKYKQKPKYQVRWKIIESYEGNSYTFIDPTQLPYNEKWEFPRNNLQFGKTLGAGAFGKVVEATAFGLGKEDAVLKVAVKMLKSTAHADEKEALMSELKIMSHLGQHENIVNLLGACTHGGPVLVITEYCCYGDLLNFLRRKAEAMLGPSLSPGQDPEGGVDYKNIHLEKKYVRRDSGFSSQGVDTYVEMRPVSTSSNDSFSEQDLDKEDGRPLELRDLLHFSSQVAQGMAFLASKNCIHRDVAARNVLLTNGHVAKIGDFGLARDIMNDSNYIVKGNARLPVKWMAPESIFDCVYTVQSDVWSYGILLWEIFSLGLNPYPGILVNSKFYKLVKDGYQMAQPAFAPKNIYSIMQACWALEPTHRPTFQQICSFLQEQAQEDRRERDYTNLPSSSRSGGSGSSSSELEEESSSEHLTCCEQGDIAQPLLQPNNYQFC
Experimental: A study was conducted to test certain compounds described in EXAMPLE 1 in inhibiting CSF1R kinase activity.
Activity of CSF1R kinase was determined using a CSF1R Kinase-Glo assay. Recombinant N-terminal GST-CSF1R (CSF1R residues L534-C972) containing the CSFIR kinase domain was expressed in Sf9 insect cells and purified. The kinase assay was carried out in 96-well plates at 30° C. for 180 min with the tested compounds in a final volume of 50 μl including the following components: 25 mM Tris-HCl pH 7.4, 4 mM MnCl2, 10 mM MgCl2, 0.01% BSA, 0.5 mM NA3VO4, 0.02% Triton X-100, 40 μM ATP, 2 mM DTT and 20 μM poly(Glu,Tyr) 4:1 peptide, and 600 ng recombinant GST-CSF1R. Following incubation, 50 μl Kinase-Glo Plus Reagent (Promega, Madison, WI, USA) was added and the mixture was incubated at 25° C. for 20 min. A 70-μL aliquot of each reaction mixture was transferred to a black microtiter plate and luminescence was measured on Wallac Vector 1420 multilabel counter (PerkinElmer, Shelton, CT, USA). Percentage inhibition values were obtained by comparison of reaction rate with the rates in control wells (i.e., in the absence of test compound). IC50 values were calculated from a series of percentage inhibition values determined at a range of test compound concentrations using GraphPad Prism version 6 software (GraphPad, San Diego, CA, USA).

[2] = tested on: BaF3-CSF1R-1600 cells (express ETV6-CSF1R fusion protein); experiment: MTS cell viability assay, BaF3-CSF1R-1600; format: cell-based; conditions: 72 h, read-out: Cellular Proliferation Assay BaF3-CSF1R GI50
Experimental: (§1) Studies were conducted to evaluate […] anticancer activity of certain compounds described in EXAMPLE 1 using 3-(4,5-dimethylthiazol-2-yl)-5-(3-carboxymethoxyphenyl)-2-(4-sulfophenyl)-2H-tetrazolium) (MTS) cell viability assays. Results from these studies are shown in Table 2 below (see columns 3 and 4).
(§2) The cell lines M-NFS-60 (ATCC® CRL-1838™) and BaF3-CSF1R-1600 were obtained from American Type Culture Collection (ATCC, Manassas, VA, USA). The stable BaF3-CSF1R-1600 cell line expresses ETV6-CSF1R fusion protein consisting of N-terminal ETS-variant gene 6 protein (ETV6 residues M1-G337) and CSF1R tyrosine kinase (CSF1R residues L533-C972). The M-NSF-60 and BaF3-CSF1R-1600 cells were cultured in RPMI1640 medium supplemented with 10% fetal bovine serum, 0.05 mM 2-ME, 10 U/ml penicillin, and 10 µg/ml streptomycin at 37° C. and 5% CO2.
(§3) M-NFS-60 and BaF3-CSF1R-1600 cells were seeded in 96-well plates at a density of 10000 cells/100 μl and 8000 cells/100 μl per well, respectively, for 16 h and treated with vehicle or various concentrations of test compounds in medium for 72 h. Viable cells were quantified using the MTS method (Promega, Madison, WI, USA) according to manufacturer's recommended protocol. The results were determined by measuring absorbance at 490 nm using a plate reader (Victor 2). The GI50 value was defined as the amount of compound that caused 50% reduction in cell viability in comparison with DMSO-treated (vehicle) control and was calculated using Prism GraphPad Prism version 6 software (GraphPad).

M-NFS-60 cells = experiment: MTS cell viability assay, M-NFS-60; format: cell-based; conditions: 72 h, read-out: Cellular Proliferation Assay M-NFS-60 (nM) GI50
Experimental: as §1, §2, §3

IC50 [1] [nM] | GI50 [2] [nM] | Compound | GI50 (M-NFS-60 cells) [nM]
< 20 | < 20 | CN(C)c1ccc2c(Oc3ccc(NC(=O)Nc4ccccc4F)cc3)ncnc2c1 [Compound 14] | 100 to 1000
< 20 | 20 to 100 | CN(CCCN1CCOCC1)c1ccc2c(Oc3ccc(NC(=O)NCc4ccc(C(F)(F)F)nc4)cc3)ncnc2c1 [Compound 45] | 100 to 1000
< 20 | 20 to 100 | O=C(NCc1ccc(C(F)(F)F)nc1)Nc1ccc(Oc2ncnc3cc(N4CCC(O)CC4)ccc23)cc1 [Compound 30, 1-(4-((7-(4-hydroxypiperidin-1-yl)quinazolin-4-yl)oxy)phenyl)-3-((6-(trifluoromethyl)pyridin-3-yl)methyl)urea] | 20 to 100
< 20 | 20 to 100 | COc1ccc(CNC(=O)Nc2ccc(Oc3ncnc4cc(N(C)C)ccc34)cc2)cc1 [Compound 59] | 20 to 100
20 to 100 | 100 to 1000 | CN(C)c1ccc2c(Oc3ccc(NC(=O)NCc4nccs4)cc3)ncnc2c1 [Compound 101] | 100 to 1000
20 to 100 | 20 to 100 | CN(C)C1CCN(c2ccc3c(Oc4ccc(NC(=O)Nc5ccccc5)cc4)ncnc3c2)CC1 [Compound 11] | 20 to 100
< 20 | 20 to 100 | COc1ccc(NC(=O)Nc2ccc(Oc3ncnc4cc(N(C)C)ccc34)cc2)cc1 [Compound 21] | 20 to 100
20 to 100 | 100 to 1000 | CN(C)c1ccc2c(Oc3ccc(NC(=O)NCc4ccc(C(F)(F)F)nc4)cc3Cl)ncnc2c1 [Compound 25] | > 1000
20 to 100 | 20 to 100 | COc1ccc(NC(=O)Nc2ccc(Oc3ncnc4cc(N(C)C)ccc34)cc2)cc1Cl [Compound 105] | 20 to 100
< 20 | 20 to 100 | O=C(NCc1ccc(C(F)(F)F)nc1)Nc1ccc(Oc2ncnc3cc(N4CCOCC4)ccc23)cc1 [Compound 99] | 20 to 100
< 20 | 20 to 100 | COC1CCN(c2ccc3c(Oc4ccc(NC(=O)Nc5ccc(Cl)cc5)cc4)ncnc3c2)CC1 [Compound 20] | 20 to 100
< 20 | > 1000 | CN(C)c1ccc2c(Oc3ccc(NC(=O)Nc4ccc(F)cc4)cc3)ncnc2c1 [Compound 106] | 100 to 1000
20 to 100 | 20 to 100 | O=C(Nc1ccccc1)Nc1ccc(Oc2ncnc3cc(N4CCCC4)ccc23)cc1 [Compound 9] | 20 to 100
20 to 100 | 20 to 100 | CN(C)c1ccc2c(Oc3ccc4c(cnn4C(=O)NCc4ccc(C(F)(F)F)nc4)c3)ncnc2c1 [Compound 68] | 100 to 1000
20 to 100 | 100 to 1000 | O=C(NCc1ccc(C(F)(F)F)nc1)Nc1ccc(Oc2ncnc3cc(F)ccc23)cc1 [Compound 32] | > 1000
< 20 | 100 to 1000 | CN(C)c1ccc2c(Oc3ccc(NC(=O)NCc4ccc(OC(F)(F)F)cc4)cc3)ncnc2c1 [Compound 57] | 100 to 1000
20 to 100 | < 20 | CN1CCN(c2ccc3c(Oc4ccc(NC(=O)NCc5ccc(C(F)(F)F)nc5)cc4)ncnc3c2)CC1 [Compound 28] | 20 to 100
< 20 | 20 to 100 | CN(C)c1ccc2c(Oc3ccc(NC(=O)Nc4cccc(F)c4)cc3)ncnc2c1 [Compound 18] | 100 to 1000

IC50 [1] [nM] | GI50 [2] [nM] | Compound | GI50 (M-NFS-60 cells) [nM]
20 to 100 | 20 to 100 | CN(C)c1ccc2c(Oc3ccc(NC(=O)Nc4ccccc4)cc3)ncnc2c1 [Compound 4, 1-(4-((7-(dimethylamino)quinazolin-4-yl)oxy)phenyl)-3-phenylurea] | 20 to 100
< 20 | 20 to 100 | CN(C)c1ccc2c(Oc3ccc(NC(=O)Nc4ccccc4Cl)cc3)ncnc2c1 [Compound 15] | 100 to 1000
< 20 | 20 to 100 | CN(C)c1ccc2c(Oc3ccc(NC(=O)NCc4ccccc4)cc3)ncnc2c1 [Compound 51] | 20 to 100
20 to 100 | 100 to 1000 | CN(C)c1ccc2c(Oc3ccc4nc(NCc5ccc(C(F)(F)F)nc5)oc4c3)ncnc2c1 [Compound 102] | > 1000
< 20 | 20 to 100 | COC1CCN(c2ccc3c(Oc4ccc(NC(=O)NCc5ccc(C(F)(F)F)nc5)cc4)ncnc3c2)CC1 [Compound 24] | 20 to 100
20 to 100 | 20 to 100 | C[C@@H]1CN(c2ccc3c(Oc4ccc(NC(=O)NCc5ccc(C(F)(F)F)nc5)cc4)ncnc3c2)C[C@H](C)N1C [Compound 97] | 20 to 100
< 20 | 20 to 100 | Cc1ccc(CNC(=O)Nc2ccc(Oc3ncnc4cc(N(C)C)ccc34)cc2)cn1 [Compound 65, 1-(4-((7-(dimethylamino)quinazolin-4-yl)oxy)phenyl)-3-((6-methylpyridin-3-yl)methyl)urea] | 20 to 100
< 20 | 20 to 100 | CCN1CCN(c2ccc3c(Oc4ccc(NC(=O)NCc5ccc(C(F)(F)F)nc5)cc4)ncnc3c2)CC1 [Compound 100] | 20 to 100
20 to 100 | 20 to 100 | COCCN1CCN(c2ccc3c(Oc4ccc(NC(=O)NCc5ccc(C(F)(F)F)nc5)cc4)ncnc3c2)CC1 [Compound 108] | 20 to 100
< 20 | < 20 | CN(C)c1ccc2c(Oc3ccc(NC(=O)Nc4ccc(Cl)cc4)cc3)ncnc2c1 [Compound 19] | 20 to 100
< 20 | 100 to 1000 | CN(C)c1ccc2c(Oc3ccc(NC(=O)NCc4ccc(S(N)(=O)=O)cc4)cc3)ncnc2c1 [Compound 49] | > 1000
20 to 100 | 20 to 100 | COc1cc2nccc(Oc3ccc(NC(=O)NCc4ccc(C(F)(F)F)nc4)cc3)c2cc1OC [Compound 26] | 100 to 1000
20 to 100 | 20 to 100 | COC1CCN(c2ccc3c(Oc4ccc(NC(=O)Nc5ccccc5)cc4)ncnc3c2)CC1 [Compound 2] | 20 to 100
20 to 100 | 100 to 1000 | CN(C)c1ccc2c(Oc3ccc(NC(=O)NCc4ccco4)cc3)ncnc2c1 [Compound 63] | 100 to 1000
20 to 100 | 20 to 100 | CN(C)C1CCN(c2ccc3c(Oc4ccc(NC(=O)NCc5ccc(C(F)(F)F)nc5)cc4)ncnc3c2)CC1 [Compound 23] | 20 to 100
< 20 | 20 to 100 | COC1CCN(c2ccc3c(Oc4ccc(NC(=O)Nc5cccc(Cl)c5)cc4)ncnc3c2)CC1 [Compound 17] | 20 to 100
20 to 100 | 100 to 1000 | CN(C)c1ccc2c(Oc3ccc(NC(=O)NCc4ccc(C(F)(F)F)nc4)c(Cl)c3)ncnc2c1 [Compound 33] | 100 to 1000
20 to 100 | 20 to 100 | CN1CCN(c2ccc3c(Oc4ccc(NC(=O)Nc5ccccc5)cc4)ncnc3c2)CC1 [Compound 3] | 20 to 100
